From EP4467141A1, “PYRAZOLO-QUINOLINES AS SELECTIVE INHIBITORS OF GENOTOXIC STRESS-INDUCED IKK/NF- KB PATHWAYS FOR CANCER THERAPY” (Max-Delbrück-Centrum für Molekulare Medizin in der …, priority 2023, dated 2024) come the findings set out here.

For orientation: inhibition means the change of the read-out against control, counted positive when it falls.

Holding throughout (experiment): Kinase panel study
Common to all, as to format: biochemical

The target in one assay is T1, AKT2 (PKB beta) (Homo sapiens, UniProt P31751).
T1 construct: purchased Thermo Fisher Scientific
T1 sequence (P31751 whole entry): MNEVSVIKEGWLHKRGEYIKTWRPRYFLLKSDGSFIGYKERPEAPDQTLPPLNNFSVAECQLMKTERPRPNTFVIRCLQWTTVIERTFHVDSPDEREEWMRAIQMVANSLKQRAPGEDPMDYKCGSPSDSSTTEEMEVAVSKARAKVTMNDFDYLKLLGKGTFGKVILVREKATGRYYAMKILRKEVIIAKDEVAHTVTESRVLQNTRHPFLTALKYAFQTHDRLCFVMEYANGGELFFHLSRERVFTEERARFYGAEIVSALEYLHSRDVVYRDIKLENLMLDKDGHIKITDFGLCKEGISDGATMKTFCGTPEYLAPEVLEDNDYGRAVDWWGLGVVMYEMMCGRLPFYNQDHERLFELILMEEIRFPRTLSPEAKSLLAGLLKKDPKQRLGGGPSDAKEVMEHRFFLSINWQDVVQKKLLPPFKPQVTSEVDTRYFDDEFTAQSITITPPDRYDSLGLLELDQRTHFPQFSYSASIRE
The following applies: AKT2 (PKB beta); compound at 10µM; read-out: % of Inhibition. Here is the method: (§1) The Kinase panel study was entirely provided by Thermo Fisher Scientific using the two lead compounds MW01 and MW05 as well as their derivatives (MW01-E06, MW01-E10, MW01-E14, MW01-E18, MW05-E2, MW05-E3, MW05-E9 and MW05-E10. The experiment was performed using the ZLyte or Adapta protocol according to manufacturer standard operating procedures.
(§2) Based on their similar effects in our screen and molecular analysis, MW01 and MW05 were used in comparative target deconvolution studies seeking common targets despite their distinct structures. To eliminate previously identified kinases regulating NF-κB activity, such as IKK, as possible targets of MW01 and MW05, an in vitro kinase inhibition assay was performed. […] We next investigated if any of the shared kinase targets of MW01 and MW05 play a role in genotoxic stress-induced NF-κB activity and established several criteria to narrow down pathway-relevant targets. Considering the similar NF-κB inhibition phenotypes of both compounds, we hypothesized first that the target should be shared by both lead compounds. Second, based on the CaCo2 recovery values and experimental treatment concentration of 10 µM), the putative target kinase should have a low IC50 of, at most, 2000 nM for both lead compounds in the in vitro kinase panel (Fig. 2A). Based on these criteria alone, we arrived at a relatively short list of potential targets for further analysis, leaving only PIK3CG, PIK3C2G, and CLK2 (Fig. 2B). IC50 values for PIK3C2G by both lead compounds agreed best with these criteria, but RNA expression analysis indicates high tissue specificity as well as lack of expression of this kinase in our U2-OS model cell line, which we then eliminated from further analysis (Uhlén et al., 2015). […] Table 6: Percentage of inhibition of the indicated kinases by MW01 or MW05 at either 10 µM or 1 µM. n.d. = not determined.

A further assay concerns the target T2, AKT3 (PKB gamma) (Homo sapiens, UniProt Q9Y243).
T2 construct: purchased Thermo Fisher Scientific
The note with it: AKT3 (PKB gamma); compound at 10µM; read-out: % of Inhibition. Here is the method:
as §1, §2

The target in the next assay is T3, DNA-PK (Homo sapiens, UniProt P78527).
T3 construct: purchased Thermo Fisher Scientific
The note with it: DNA-PK; compound at 10µM; read-out: % of Inhibition. Here is the method:
as §1, §2

In the next assay the target is T4, DYRK1B (Homo sapiens, UniProt Q9Y463).
T4 construct: purchased Thermo Fisher Scientific
T4 sequence (Q9Y463 whole entry): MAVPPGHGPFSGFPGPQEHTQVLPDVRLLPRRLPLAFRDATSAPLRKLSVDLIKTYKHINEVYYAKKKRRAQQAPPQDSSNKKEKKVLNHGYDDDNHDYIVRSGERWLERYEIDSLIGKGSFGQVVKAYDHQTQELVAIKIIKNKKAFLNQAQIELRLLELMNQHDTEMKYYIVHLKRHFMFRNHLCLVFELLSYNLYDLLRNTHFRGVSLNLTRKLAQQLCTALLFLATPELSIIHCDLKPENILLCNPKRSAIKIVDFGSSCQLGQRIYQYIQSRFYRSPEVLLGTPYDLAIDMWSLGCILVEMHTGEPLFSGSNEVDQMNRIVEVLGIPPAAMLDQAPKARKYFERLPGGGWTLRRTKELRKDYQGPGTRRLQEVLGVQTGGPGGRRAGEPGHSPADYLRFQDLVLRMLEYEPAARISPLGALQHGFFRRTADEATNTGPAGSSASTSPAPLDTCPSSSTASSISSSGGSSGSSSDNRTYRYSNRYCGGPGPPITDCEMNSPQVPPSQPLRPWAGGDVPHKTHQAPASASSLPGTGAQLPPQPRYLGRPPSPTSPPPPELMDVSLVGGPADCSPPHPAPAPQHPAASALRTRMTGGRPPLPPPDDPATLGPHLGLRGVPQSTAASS
The following applies: DYRK1B; compound at 10µM; read-out: % of Inhibition. The protocol: as §1, §2

The target of another assay is T5, EGFR (ErbB1) (Homo sapiens, UniProt P00533).
T5 construct: purchased Thermo Fisher Scientific
T5 sequence (P00533 25-1210): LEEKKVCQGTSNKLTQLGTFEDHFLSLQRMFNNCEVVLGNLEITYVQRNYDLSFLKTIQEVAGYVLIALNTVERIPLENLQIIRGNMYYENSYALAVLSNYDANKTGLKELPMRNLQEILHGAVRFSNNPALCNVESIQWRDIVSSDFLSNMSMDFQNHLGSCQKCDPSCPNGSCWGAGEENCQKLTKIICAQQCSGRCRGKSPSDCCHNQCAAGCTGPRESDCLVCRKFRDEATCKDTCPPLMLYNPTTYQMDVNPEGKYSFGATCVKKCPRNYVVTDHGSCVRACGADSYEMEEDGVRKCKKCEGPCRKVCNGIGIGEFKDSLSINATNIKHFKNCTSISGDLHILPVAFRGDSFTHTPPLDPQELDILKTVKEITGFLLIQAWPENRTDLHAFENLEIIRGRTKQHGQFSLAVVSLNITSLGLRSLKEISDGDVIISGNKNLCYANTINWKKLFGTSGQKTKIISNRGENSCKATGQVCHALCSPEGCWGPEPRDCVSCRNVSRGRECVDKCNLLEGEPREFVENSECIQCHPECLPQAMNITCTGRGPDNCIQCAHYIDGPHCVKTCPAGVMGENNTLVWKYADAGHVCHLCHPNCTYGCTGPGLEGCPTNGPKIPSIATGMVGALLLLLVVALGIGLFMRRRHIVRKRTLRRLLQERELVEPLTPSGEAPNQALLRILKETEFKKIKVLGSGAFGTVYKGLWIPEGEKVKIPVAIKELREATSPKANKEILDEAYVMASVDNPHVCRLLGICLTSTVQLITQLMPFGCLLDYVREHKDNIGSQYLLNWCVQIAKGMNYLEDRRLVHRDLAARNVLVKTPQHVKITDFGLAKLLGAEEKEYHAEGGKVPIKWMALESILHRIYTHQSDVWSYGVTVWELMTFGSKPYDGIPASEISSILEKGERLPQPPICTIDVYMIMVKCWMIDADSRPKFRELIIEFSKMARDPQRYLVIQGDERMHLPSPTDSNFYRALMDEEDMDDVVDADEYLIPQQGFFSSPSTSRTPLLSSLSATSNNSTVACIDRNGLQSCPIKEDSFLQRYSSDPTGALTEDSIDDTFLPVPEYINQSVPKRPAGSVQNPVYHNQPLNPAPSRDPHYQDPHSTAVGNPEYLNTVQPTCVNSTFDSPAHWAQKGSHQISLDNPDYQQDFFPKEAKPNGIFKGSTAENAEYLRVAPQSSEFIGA
The following applies: EGFR (ErbB1); compound at 10µM; read-out: % of Inhibition. The protocol: as §1, §2

In the next assay the target is T6, FRAP1 (mTOR) (Homo sapiens, UniProt P42345).
T6 construct: purchased Thermo Fisher Scientific
The note with it: FRAP1 (mTOR); compound at 10µM; read-out: % of Inhibition. Here is the method:
as §1, §2

In a further assay the target is T7, IRAK4 (Homo sapiens, UniProt Q9NWZ3).
T7 construct: purchased Thermo Fisher Scientific
T7 sequence (Q9NWZ3 1-460): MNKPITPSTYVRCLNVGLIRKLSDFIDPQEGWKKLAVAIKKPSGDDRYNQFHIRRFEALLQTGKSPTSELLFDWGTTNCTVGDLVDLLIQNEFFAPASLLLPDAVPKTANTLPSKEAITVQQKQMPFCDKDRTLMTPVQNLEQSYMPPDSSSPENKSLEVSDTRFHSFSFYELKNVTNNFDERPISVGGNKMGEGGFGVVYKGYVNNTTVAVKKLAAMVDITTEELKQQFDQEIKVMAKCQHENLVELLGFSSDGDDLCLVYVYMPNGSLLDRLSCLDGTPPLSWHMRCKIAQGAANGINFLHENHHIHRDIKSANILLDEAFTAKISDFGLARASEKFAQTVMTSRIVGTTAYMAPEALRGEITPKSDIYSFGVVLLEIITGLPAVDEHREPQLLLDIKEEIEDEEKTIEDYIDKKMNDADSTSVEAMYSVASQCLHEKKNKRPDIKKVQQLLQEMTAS
The following applies: IRAK4; compound at 10µM; read-out: % of Inhibition. The protocol: as §1, §2

The next assay deals with T8, MAP4K2 (GCK) (Homo sapiens, UniProt Q12851).
T8 construct: purchased Thermo Fisher Scientific
T8 sequence (Q12851 1-820): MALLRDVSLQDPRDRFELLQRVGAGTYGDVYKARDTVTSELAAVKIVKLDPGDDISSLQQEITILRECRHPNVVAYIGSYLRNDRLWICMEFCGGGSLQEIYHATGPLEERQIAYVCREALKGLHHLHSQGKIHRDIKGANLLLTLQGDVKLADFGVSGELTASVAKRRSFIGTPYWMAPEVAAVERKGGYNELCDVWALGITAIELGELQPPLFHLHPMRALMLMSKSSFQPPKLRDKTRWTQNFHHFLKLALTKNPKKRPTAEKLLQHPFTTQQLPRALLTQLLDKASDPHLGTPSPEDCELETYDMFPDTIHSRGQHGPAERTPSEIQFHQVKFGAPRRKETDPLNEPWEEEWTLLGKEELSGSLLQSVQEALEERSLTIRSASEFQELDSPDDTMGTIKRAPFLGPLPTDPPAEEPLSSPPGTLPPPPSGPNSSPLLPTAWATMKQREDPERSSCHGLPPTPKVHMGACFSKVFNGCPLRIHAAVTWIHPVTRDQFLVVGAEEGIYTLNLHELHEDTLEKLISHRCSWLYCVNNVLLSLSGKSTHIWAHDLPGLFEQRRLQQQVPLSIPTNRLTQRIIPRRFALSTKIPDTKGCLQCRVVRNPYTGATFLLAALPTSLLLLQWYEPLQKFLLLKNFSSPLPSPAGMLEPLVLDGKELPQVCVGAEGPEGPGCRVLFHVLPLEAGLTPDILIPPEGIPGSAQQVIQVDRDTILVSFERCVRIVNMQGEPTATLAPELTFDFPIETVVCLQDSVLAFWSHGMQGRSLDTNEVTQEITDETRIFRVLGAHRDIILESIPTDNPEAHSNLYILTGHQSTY
The note with it: MAP4K2 (GCK); compound at 10µM; read-out: % of Inhibition. The protocol:
as §1, §2

Another assay concerns the target T9, PIP4K2A (Homo sapiens, UniProt P48426).
T9 construct: purchased Thermo Fisher Scientific
T9 sequence (P48426 1-406): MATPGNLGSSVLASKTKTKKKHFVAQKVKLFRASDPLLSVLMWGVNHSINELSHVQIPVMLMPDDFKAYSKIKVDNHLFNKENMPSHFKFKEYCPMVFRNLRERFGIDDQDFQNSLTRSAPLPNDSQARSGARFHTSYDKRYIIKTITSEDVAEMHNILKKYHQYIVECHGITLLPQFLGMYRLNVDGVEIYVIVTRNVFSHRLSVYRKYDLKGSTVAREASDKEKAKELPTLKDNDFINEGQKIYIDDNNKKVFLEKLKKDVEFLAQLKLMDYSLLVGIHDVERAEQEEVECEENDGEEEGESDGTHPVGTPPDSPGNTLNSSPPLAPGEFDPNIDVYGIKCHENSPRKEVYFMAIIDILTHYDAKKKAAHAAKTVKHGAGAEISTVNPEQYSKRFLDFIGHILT
The following applies: PIP4K2A; compound at 10µM; read-out: % of Inhibition. Here is the method:
as §1, §2

T2 sequence (Q9Y243 whole entry): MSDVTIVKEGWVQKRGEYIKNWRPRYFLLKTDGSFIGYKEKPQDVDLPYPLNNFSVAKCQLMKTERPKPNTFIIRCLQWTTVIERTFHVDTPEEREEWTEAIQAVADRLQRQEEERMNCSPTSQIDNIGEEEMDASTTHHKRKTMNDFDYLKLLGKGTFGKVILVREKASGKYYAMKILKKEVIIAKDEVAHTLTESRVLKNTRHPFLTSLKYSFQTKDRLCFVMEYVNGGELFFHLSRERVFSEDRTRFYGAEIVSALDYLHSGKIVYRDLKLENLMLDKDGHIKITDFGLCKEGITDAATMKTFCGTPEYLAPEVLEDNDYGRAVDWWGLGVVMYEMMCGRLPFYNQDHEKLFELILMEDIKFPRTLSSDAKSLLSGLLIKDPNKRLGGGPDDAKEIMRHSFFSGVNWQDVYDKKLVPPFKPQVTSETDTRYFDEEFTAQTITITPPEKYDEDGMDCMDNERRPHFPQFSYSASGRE

Turning to `COc1ccc2nc3c(cc2c1)c(N)nn3C(=O)c1cccc(N(C)C)c1` [MW05-E2, 1-[3-(dimethylamino)benzoyl]-6-methoxy-1H-pyrazolo[3,4-b]quinolin-3-amine], the inhibition at 10 µM on AKT2 (PKB beta) was 8%; on AKT3 (PKB gamma) it was 11%; at DNA-PK, 16%; on DYRK1B, 84%; on EGFR (ErbB1), 33%; on FRAP1 (mTOR) it was 5%. In addition, the inhibition at 10 µM on IRAK4 is -3%; at MAP4K2 (GCK), 2%; on PIP4K2A, -6%.
